Laboratory results published in patent US20260285850A1, “SUBSTITUTED OXAZOLIDINONES AND IMIDAZOLINONES AS HERBICIDES” (FMC CORPORATION, priority 2023, published 2026).

Columns and labels:
Assay type in all cases: in vivo
[1] = test system: barnyardgrass (Echinochloa crusgalli); test: Test B flooded paddy test, visual plant response rating 0-100; details: 250 g ai/ha, Flood, applied to paddy water, evaluated after 13 days
Procedure, shortened: (§1)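 Plants were grown to the 2-leaf stage, then pots were flooded to 3 cm above the soil and compound was applied directly to the paddy water, with that depth kept throughout.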

[2] = test system: rice (Oryza sativa); test: as above; details: 250 g ai/ha, Flood, applied to paddy water, evaluated after 13 days
Procedure, shortened: as §1

[3] = test system: sedge, umbrella (small-flower umbrella sedge, Cyperus difformis); test: as above; details: 250 g ai/ha, Flood, applied to paddy water, evaluated after 13 days
Procedure, shortened: as §1

[4] = test system: ducksalad (Heteranthera limosa); test: as above; details: 250 g ai/ha, Flood, applied to paddy water, evaluated after 13 days
Procedure, shortened: as §1

[5] = test system: oat, wild (wild oat, Avena fatua); test: Test A postemergence application, visual injury rating 0-100; details: Postemergence
Procedure, shortened: (§2)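 Preemergence directed soil spray or postemergence spray (2-10 cm, 1-2 leaf); loam/sand mix; compound in non-phytotoxic solvent + surfactant. Greenhouse, 10 d. Visual injury vs untreated, 0 = none, 100 = complete control.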

[6] = test system: blackgrass (Alopecurus myosuroides); test: as above; details: Postemergence
Procedure, shortened: as §2

[7] = test system: galium (catchweed bedstraw, Galium aparine); test: as above; details: Postemergence
Procedure, shortened: as §2

[8] = test system: ragweed (common ragweed, Ambrosia artemisiifolia); test: as above; details: Postemergence
Procedure, shortened: as §2

[9] = test system: corn (Zea mays); test: as above; details: Postemergence
Procedure, shortened: as §2

[10] = test system: palmer (palmer amaranth, palmer pigweed, Amaranthus palmeri); test: as above; details: Postemergence
Procedure, shortened: as §2

[11] = test system: kochia (Bassia scoparia); test: as above; details: Postemergence
Procedure, shortened: as §2

[12] = test system: barnyardgrass (Echinochloa crus-galli); test: as above; details: Postemergence
Procedure, shortened: as §2

[13] = test system: soybean (Glycine max); test: as above; details: Postemergence
Procedure, shortened: as §2

[14] = test system: horseweed (Erigeron canadensis); test: as above; details: Postemergence
Procedure, shortened: as §2

[15] = test system: wheat (Triticum aestivum); test: as above; details: Postemergence
Procedure, shortened: as §2

[16] = test system: ryegrass, Italian (italian ryegrass, Lolium multiflorum); test: as above; details: Postemergence
Procedure, shortened: as §2

[17] = test system: oat, wild (wild oat, Avena fatua); test: Test A preemergence soil spray, visual injury rating 0-100; details: 10 days, 0 = no effect, 100 = complete control
Procedure, shortened: as §2

[18] = test system: blackgrass (Alopecurus myosuroides); test: as above; details: 10 days, 0 = no effect, 100 = complete control
Procedure, shortened: as §2

[19] = test system: ragweed (common ragweed, Ambrosia artemisiifolia); test: as above; details: 10 days, 0 = no effect, 100 = complete control
Procedure, shortened: as §2

[20] = test system: corn (Zea mays); test: as above; details: 10 days, 0 = no effect, 100 = complete control
Procedure, shortened: as §2

[21] = test system: palmer (palmer amaranth, palmer pigweed, Amaranthus palmeri); test: as above; details: 10 days, 0 = no effect, 100 = complete control
Procedure, shortened: as §2

[22] = test system: kochia (Bassia scoparia); test: as above; details: 10 days, 0 = no effect, 100 = complete control
Procedure, shortened: as §2

[23] = test system: barnyardgrass (Echinochloa crus-galli); test: as above; details: 10 days, 0 = no effect, 100 = complete control
Procedure, shortened: as §2

[24] = test system: soybean (Glycine max); test: as above; details: 10 days, 0 = no effect, 100 = complete control
Procedure, shortened: as §2

[25] = test system: wheat (Triticum aestivum); test: as above; details: 10 days, 0 = no effect, 100 = complete control
Procedure, shortened: as §2

[26] = test system: ryegrass, Italian (italian ryegrass, Lolium multiflorum); test: as above; details: 10 days, 0 = no effect, 100 = complete control
Procedure, shortened: as §2

[27] = 31 g ai/ha, greenhouse 10 days, 0 no effect, 100 complete control
[28] = 125 g ai/ha, 10 days, 0 is no effect, 100 is complete control

CC1(C(=O)NC2C=CC(C(=O)ON=Cc3ccccc3)C2)CN(c2cc(F)cc(F)c2)C(=O)O1 (stereo not drawn) [Compound 68]
Plant response rating, Barnyardgrass (0 to 100 scale, 0 is no effect and 100 is complete control) [1]: 85 | Plant response rating, Rice (0 to 100 scale, 0 is no effect and 100 is complete control) [2]: 40 | Plant response rating, Sedge, Umbrella (0 to 100 scale, 0 is no effect and 100 is complete control) [3]: 98 | Plant response rating, Ducksalad (0 to 100 scale, 0 is no effect and 100 is complete control) [4]: 95 | Oat, Wild plant response rating (0 to 100 scale) [5, 27]: 30 | Oat, Wild plant response rating (0 to 100 scale) [5, 28]: 90 | Blackgrass plant response rating (0 to 100 scale) [6, 27]: 70 | Blackgrass plant response rating (0 to 100 scale) [6, 28]: 90 | Galium plant response rating (0 to 100 scale) [7, 27]: 90 | Galium plant response rating (0 to 100 scale) [7, 28]: 90 | Ragweed plant response rating (0 to 100 scale) [8, 27]: 0 | Ragweed plant response rating (0 to 100 scale) [8, 28]: 80 | Corn plant response rating (0 to 100 scale) [9, 27]: 80 | Corn plant response rating (0 to 100 scale) [9, 28]: 100 | Amaranth, Palmer / Pigweed, Palmer plant response rating (0 to 100 scale) [10, 27]: 90 | Amaranth, Palmer / Pigweed, Palmer plant response rating (0 to 100 scale) [10, 28]: 90 | Kochia plant response rating (0 to 100 scale) [11, 27]: 80 | Kochia plant response rating (0 to 100 scale) [11, 28]: 90 | Barnyardgrass plant response rating (0 to 100 scale) [12, 27]: 90 | Barnyardgrass plant response rating (0 to 100 scale) [12, 28]: 90 | Soybean plant response rating (0 to 100 scale) [13, 27]: 90 | Soybean plant response rating (0 to 100 scale) [13, 28]: 100 | Horseweed plant response rating (0 to 100 scale) [14, 27]: 50 | Horseweed plant response rating (0 to 100 scale) [14, 28]: 90 | Wheat plant response rating (0 to 100 scale) [15, 27]: 80 | Wheat plant response rating (0 to 100 scale) [15, 28]: 90 | Ryegrass, Italian plant response rating (0 to 100 scale) [16, 27]: 90 | Ryegrass, Italian plant response rating (0 to 100 scale) [16, 28]: 100 | Oat, Wild plant response rating (0-100) ([17]; 31 g ai/ha): 60 | Oat, Wild plant response rating (0 to 100 scale) ([17]; 125 g ai/ha): 90 | Blackgrass plant response rating (0-100) ([18]; 31 g ai/ha): 50 | Blackgrass plant response rating (0 to 100 scale) ([18]; 125 g ai/ha): 70 | Ragweed plant response rating (0-100) ([19]; 31 g ai/ha): 0 | Ragweed plant response rating (0 to 100 scale) ([19]; 125 g ai/ha): 20 | Corn plant response rating (0-100) ([20]; 31 g ai/ha): 0 | Corn plant response rating (0 to 100 scale) ([20]; 125 g ai/ha): 80 | Amaranth, Palmer plant response rating (0-100) ([21]; 31 g ai/ha): 100 | Amaranth, Palmer plant response rating (0 to 100 scale) ([21]; 125 g ai/ha): 100 | Kochia plant response rating (0-100) ([22]; 31 g ai/ha): 80 | Kochia plant response rating (0 to 100 scale) ([22]; 125 g ai/ha): 90 | Barnyardgrass plant response rating (0-100) ([23]; 31 g ai/ha): 90 | Barnyardgrass plant response rating (0 to 100 scale) ([23]; 125 g ai/ha): 100 | Soybean plant response rating (0-100) ([24]; 31 g ai/ha): 0 | Soybean plant response rating (0 to 100 scale) ([24]; 125 g ai/ha): 70 | Wheat plant response rating (0-100) ([25]; 31 g ai/ha): 80 | Wheat plant response rating (0 to 100 scale) ([25]; 125 g ai/ha): 90 | Ryegrass, Italian plant response rating (0-100) ([26]; 31 g ai/ha): 70 | Ryegrass, Italian plant response rating (0 to 100 scale) ([26]; 125 g ai/ha): 80
